How the values were obtained:
Format in all cases: cell-based, human
[1] = tested on: Gal4DBD/HIF-1α 727-826 CAD chimera; test: Gal4 response element luciferase reporter gene assay, GalDBD/HIF-1α CAD chimera; settings: cells treated 16 h at normoxia
[2] = tested on: Gal4DBD/HIF-2α 774-874 CAD chimera; test: Gal4 response element luciferase reporter gene assay, GalDBD/HIF-2α CAD chimera; settings: cells treated 16 h at normoxia
Excerpt: FIG. 3. Expression vectors for either the Gal4 DNA Binding Domain or the indicated GalDBD HIF-1α and HIF-2α CAD chimeric proteins were contransfected with a Gal4 response element containing luciferase reporter gene and an internal control renilla luciferase reporter gene. […] Data are the average of three transfections±standard deviation.
FIG. 6. […] A) Sequence comparisons show conservation of the critical Asn between HIF-1α and HIF-2α across species. […] HEK293T cells were transfected according to the protocol of FIG. 3A and data represent the average of triplicate transfections +/standard deviation. (C). The wild type and mutant Ga14DBD/HIF chimeras used in A) are expressed at the same levels during transient transfection. Whole cell extracts of control or transfected cells were separated by SDS-PAGE and proteins detected by immunoblotting with antibodies directed against the C-terminus of HIF-1α (C) or HIF2α.
Human embryonic kidney 293T and rat pheochromocytoma PC12 cells were maintained in Dulbecco's Modified Eagles Medium (DMEM) supplemented with 10% foetal calf serum. For transient transfections, cells were plated onto 24 well plates at a density of 2.0×10^4 cells/well. […] After 16 hrs treatment, cells were harvested, Iysed and extracts analysed using the Dual Luciferase Reporter Assay Kit as outlined by the manufacturer (Promega). […]

[3] = tested on: HIF-2α CAD; test: Immunoblot of HIF-2α CAD protein expression in stable transfected HEK 293T cells; settings: treatment 3 h, anti-myc immunoblot
Excerpt: FIG. 4. A) Schematic showing domains of HIF-2α and the construct containing the CAD region fused to a 6xHis tag/myc epitope which was used to generate a stable expressing cell line. B) Protein expression of the HIF-2α CAD is not increased by hypoxia or DP treatment. […] The 293T control lane contains extract from cells stably transfected with blank expression vector. C) Sypro-Ruby (Bio-Rad) stained SDSPAGE gel showing an example of HIF-2α CAD purified from stable transfected cells. Extracts from non transfected cells subjected to the same purification procedure lack the HIF-2α CAD band.The higher molecular weight contaminant that is co-purified by the procedure was identified as 60S ribosomal protein L27A by mass spectrometry.
Isolated cell pellets were lysed in whole cell extract (WCE) buffer (10 mM Tris pH7.9, 0.42M NaCl2, 0.5% NP40, 25% Glycerol, 0.2 mM EDTA, 1.5 mM MgCl2, 1 mM DTT, protease inhibitors) for 10 min at 4° C. Lysed extracts were then clarified by centrifugation at 12,000 g for 15 min. The protein concentration of clarified lysates was determined using the Bradford assay (Biorad). Protein samples were then resolved on 12.5% Tris-Tricine gels. For the HIF-2α774-874 stable line, 10 μg of WCE was analysed by immunoblotting with the anti-myc 9E10 monoclonal antibody. […]

[4] = tested on: HIF-2α CAD Asn851 hydroxylation; test: Mass spectrometry of HIF-2α CAD purified from stable 293T cells (hydroxylation of Asn851); settings: DP 100 μM, 3 h; MALDI-TOF
Procedure: FIG. 5. A) Mass spectrometry of the HIF-2α CAD purified from cells incubated in normoxia or subjected to hypoxia (<1% O2, 3 h) or DP (100 μM, 3 h) treatments. A & B) Magnified views of the MALDI-TOF spectra corresponding to hydroxylation (+16 Da) of the peptide […] [SED ID NO. 1], which appears in the normoxic but not hypoxic or DP treated samples. […] Fragments were also observed for the modified sequence at m/z values of +16 Da higher than Asn851-containing fragments of the unmodified sequence. The boundary of the coincident and +16 Da fragment ions is indicated by the symbol N+ on the fragment ion spectrum of the modified sequence.
Samples for MS analysis were isolated from a 293T stable cell line that expressed HIF-2α774-874. After normoxic culture or treatment with hypoxia or DP as specified, cells were washed once with PBS, then lysed with binding buffer (100 mM Na-Phosphate pH8.0, 8M Urea, 0.1% NP40, 0.15M NaCl2, 5 mM imidazole, 1 mM βMe, 0.05 mM Na3VO4, 0.1 mM NaF, 0.5 mM β-Glycerophosphate, protease inhibitors). […]
Tryptic digests were analyzed using a Bruker Reflex MALDI-TOF-MS operated in the positive ion reflector mode. MALDI-TOF-MS data were acquired and analyzed using the Bruker XMass suite of software (Lopaticki et al., 1998; Pitt et al., 2000; Gorman et al., 1997). […]

| SMILES | activity of the Gal4DBD/HIF-1α CAD chimera on treatment of cells [1] | activity of the Gal4DBD/HIF-2α CAD chimera on treatment of cells [2] | protein expression of the HIF-2α CAD [3] | +16 Da (hydroxylated) form of peptide 846-YDCEVNVPVPGSSTLLQGR-864 [4] |
| --- | --- | --- | --- | --- |
| COC(=O)CNC(=O)C(=O)OC [DMOG, dimethyl-oxalylglycine] | activation of the Gal4DBD/HIF-1α and Gal4DBD/HIF-2α CAD chimeras to a similar extent as that seen during treatment with hypoxia | activation of the Gal4DBD/HIF-1α and Gal4DBD/HIF-2α CAD chimeras to a similar extent as that seen during treatment with hypoxia | – | – |
| c1ccc(-c2ccccn2)nc1 [DP, 2,2′-dipyridyl] | – | induces activity of the CADs | not increased | complete lack of the +16 mass increase |
